Test results: ChEMBL document CHEMBL3877251, “Synthesis and biological evaluation of a series of N-alkylated imidazole alkanoic acids as mGAT3 selective GABA uptake inhibitors” (Eur J Med Chem, 2016)

Columns and labels:
Type in all cases: cell-based
GABA transporter 4 = target: T1, GABA transporter 4 (Mus musculus, UniProt P31650); assay: Inhibition of mouse GAT4 expressed in HEK293 cells assessed as decrease in [3H]GABA uptake preincubated for 25 mins followed by [3H]GABA addition measured after 4 mins by liquid scintillation counter method
T1 sequence (P31650 whole entry): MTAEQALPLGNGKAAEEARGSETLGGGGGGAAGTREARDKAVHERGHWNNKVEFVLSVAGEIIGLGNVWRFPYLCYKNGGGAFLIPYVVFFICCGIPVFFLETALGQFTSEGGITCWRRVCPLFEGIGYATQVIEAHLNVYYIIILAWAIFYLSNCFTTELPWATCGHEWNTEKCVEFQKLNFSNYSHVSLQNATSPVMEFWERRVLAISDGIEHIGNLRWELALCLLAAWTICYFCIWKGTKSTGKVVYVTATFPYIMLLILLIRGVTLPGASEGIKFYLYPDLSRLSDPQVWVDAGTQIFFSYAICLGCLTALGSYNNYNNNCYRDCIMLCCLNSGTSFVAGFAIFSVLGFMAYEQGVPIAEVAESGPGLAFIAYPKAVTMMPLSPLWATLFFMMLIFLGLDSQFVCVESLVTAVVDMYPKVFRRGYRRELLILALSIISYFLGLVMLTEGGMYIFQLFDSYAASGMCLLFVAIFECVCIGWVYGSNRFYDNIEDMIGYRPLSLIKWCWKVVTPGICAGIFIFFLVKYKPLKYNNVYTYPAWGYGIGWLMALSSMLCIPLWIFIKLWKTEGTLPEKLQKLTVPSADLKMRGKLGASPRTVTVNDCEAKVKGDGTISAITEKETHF

GABA transporter 3 = target: T2, GABA transporter 3 (Mus musculus, UniProt P31649); assay: Inhibition of mouse GAT3 expressed in HEK293 cells assessed as decrease in [3H]GABA uptake preincubated for 25 mins followed by [3H]GABA addition measured after 4 mins by liquid scintillation counter method
T2 sequence (P31649 whole entry): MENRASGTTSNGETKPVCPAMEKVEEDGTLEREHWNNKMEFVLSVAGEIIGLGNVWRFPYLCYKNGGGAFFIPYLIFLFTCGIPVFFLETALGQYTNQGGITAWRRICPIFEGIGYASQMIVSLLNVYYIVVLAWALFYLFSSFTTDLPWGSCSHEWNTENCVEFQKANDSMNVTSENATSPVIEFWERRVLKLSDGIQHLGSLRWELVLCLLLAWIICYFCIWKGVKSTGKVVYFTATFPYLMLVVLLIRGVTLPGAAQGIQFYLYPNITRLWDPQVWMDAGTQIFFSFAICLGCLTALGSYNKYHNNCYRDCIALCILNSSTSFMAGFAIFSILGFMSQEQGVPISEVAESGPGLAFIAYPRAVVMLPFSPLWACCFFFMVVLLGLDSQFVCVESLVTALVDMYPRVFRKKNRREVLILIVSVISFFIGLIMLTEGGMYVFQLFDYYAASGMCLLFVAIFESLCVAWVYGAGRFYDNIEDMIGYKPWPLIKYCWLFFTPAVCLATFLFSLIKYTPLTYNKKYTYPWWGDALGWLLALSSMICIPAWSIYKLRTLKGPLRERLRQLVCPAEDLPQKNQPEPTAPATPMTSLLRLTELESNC

[1] = target: Sodium- and chloride-dependent GABA transporter 1 (Mus musculus) (UniProt P31648); assay: Inhibition of mouse GAT1 expressed in HEK293 cells assessed as decrease in [3H]GABA uptake at 100 uM preincubated for 25 mins followed by [3H]GABA addition measured after 4 mins by liquid scintillation counter method
GABA transporter 2 = target: T3, GABA transporter 2 (Mus musculus, UniProt P31651); assay: Inhibition of mouse GAT2 expressed in HEK293 cells assessed as decrease in [3H]GABA uptake preincubated for 25 mins followed by [3H]GABA addition measured after 10 mins by liquid scintillation counter method
T3 sequence (P31651 whole entry): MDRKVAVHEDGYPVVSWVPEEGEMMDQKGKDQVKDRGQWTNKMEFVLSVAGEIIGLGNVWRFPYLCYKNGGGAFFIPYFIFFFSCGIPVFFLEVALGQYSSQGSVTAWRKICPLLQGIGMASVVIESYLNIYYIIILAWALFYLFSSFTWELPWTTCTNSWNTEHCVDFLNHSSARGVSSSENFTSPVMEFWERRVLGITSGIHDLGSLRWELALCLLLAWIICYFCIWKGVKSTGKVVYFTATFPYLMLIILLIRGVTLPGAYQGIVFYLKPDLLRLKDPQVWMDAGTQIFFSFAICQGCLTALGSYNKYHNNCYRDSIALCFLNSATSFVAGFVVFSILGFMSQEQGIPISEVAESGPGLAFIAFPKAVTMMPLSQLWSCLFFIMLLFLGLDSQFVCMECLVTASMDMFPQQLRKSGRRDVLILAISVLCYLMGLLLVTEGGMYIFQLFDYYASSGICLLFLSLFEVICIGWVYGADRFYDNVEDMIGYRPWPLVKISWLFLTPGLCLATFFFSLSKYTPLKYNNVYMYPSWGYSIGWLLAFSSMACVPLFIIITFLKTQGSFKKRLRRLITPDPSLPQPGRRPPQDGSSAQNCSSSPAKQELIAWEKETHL

[2] = target: T4, Sodium- and chloride-dependent betaine transporter (Homo sapiens, UniProt P48065); assay: Inhibition of human BGT-1 expressed in thymidine kinase deficient mouse LM cells assessed as decrease in [3H]GABA uptake after 10 mins by scintillation counter method
T4 sequence (P48065 whole entry): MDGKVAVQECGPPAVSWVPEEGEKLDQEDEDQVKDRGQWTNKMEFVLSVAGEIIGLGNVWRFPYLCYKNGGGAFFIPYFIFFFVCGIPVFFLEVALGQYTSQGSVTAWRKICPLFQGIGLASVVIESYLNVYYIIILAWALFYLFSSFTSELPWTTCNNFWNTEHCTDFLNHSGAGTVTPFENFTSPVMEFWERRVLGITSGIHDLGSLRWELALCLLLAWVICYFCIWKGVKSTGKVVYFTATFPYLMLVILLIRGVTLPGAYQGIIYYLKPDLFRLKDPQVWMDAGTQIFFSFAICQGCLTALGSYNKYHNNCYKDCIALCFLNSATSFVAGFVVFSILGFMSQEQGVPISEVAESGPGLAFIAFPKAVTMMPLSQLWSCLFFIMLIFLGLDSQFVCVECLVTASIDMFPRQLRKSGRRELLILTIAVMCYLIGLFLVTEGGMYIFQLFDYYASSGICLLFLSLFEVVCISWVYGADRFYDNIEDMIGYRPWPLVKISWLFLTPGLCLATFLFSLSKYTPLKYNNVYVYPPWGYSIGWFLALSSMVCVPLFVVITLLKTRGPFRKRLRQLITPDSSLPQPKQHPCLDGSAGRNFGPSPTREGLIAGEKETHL

[3] = target: T5, GABA transporter 2 (Mus musculus) (UniProt P31651); assay: Inhibition of mouse GAT2 expressed in HEK293 cells assessed as decrease in [3H]GABA uptake at 100 uM preincubated for 25 mins followed by [3H]GABA addition measured after 10 mins by liquid scintillation counter method
T5 sequence (whole entry): T3 sequence (P31651 whole entry)

[4] = target: Sodium- and chloride-dependent GABA transporter 1 (Mus musculus, UniProt P31648); assay: Inhibition of mouse GAT1 expressed in HEK293 cells assessed as decrease in [3H]GABA uptake preincubated for 25 mins followed by [3H]GABA addition measured after 4 mins by liquid scintillation counter method
[5] = target: T6, GABA transporter 3 (Mus musculus) (UniProt P31649); assay: Inhibition of mouse GAT3 expressed in HEK293 cells assessed as decrease in [3H]GABA uptake at 100 uM preincubated for 25 mins followed by [3H]GABA addition measured after 4 mins by liquid scintillation counter method
T6 sequence (whole entry): T2 sequence (P31649 whole entry)

[6] = target: T7, GABA transporter 4 (Mus musculus) (UniProt P31650); assay: Inhibition of mouse GAT4 expressed in HEK293 cells assessed as decrease in [3H]GABA uptake at 100 uM preincubated for 25 mins followed by [3H]GABA addition measured after 4 mins by liquid scintillation counter method
T7 sequence (whole entry): T1 sequence (P31650 whole entry)

| Compound | IC50 (GABA transporter 4) | IC50 (GABA transporter 3) | inhibition [1] | IC50 (GABA transporter 2) | IC50 [2] | inhibition [3] | IC50 [4] | inhibition [5] | inhibition [6] |
| --- | --- | --- | --- | --- | --- | --- | --- | --- | --- |
| COc1ccc(C2(OCCCCCn3cnc(CC(=O)O)c3)c3ccccc3-c3ccccc32)cc1 | 105 µM | 97.7 µM | 72.7% | 61.7 µM |  |  |  |  |  |
| COc1ccc(C2(OCCN3CCCC(C(=O)O)C3)c3ccccc3-c3ccccc32)cc1 (stereo not drawn) | 30.2 µM | 93.3 µM | 73.1% |  | 27 µM | 66.3% |  |  |  |
| O=C(O)CCc1ncc[nH]1 | 309 µM | 28.8 µM | 62.8% | 525 µM |  |  |  |  |  |
| COc1ccc(C2(/C=C/Cn3cnc(CC(=O)O)c3)c3ccccc3-c3ccccc32)cc1 | 39.8 µM | 47.9 µM | 62.4% |  |  | 24.2% |  |  |  |
| COc1ccc(C2(/C=C/Cn3cncc3CC(=O)O)c3ccccc3-c3ccccc32)cc1 | 110 µM | 79.4 µM |  | 166 µM |  |  | 126 µM |  |  |
| O=C(O)CCc1nccn1CCC=C(c1ccccc1)c1ccccc1 |  |  |  | 58.9 µM |  |  | 74.1 µM | 48.1% | 53.7% |
| COc1ccc(C2(OCCCCCn3ccnc3CCC(=O)O)c3ccccc3-c3ccccc32)cc1 | 29.5 µM | 23.4 µM |  | 12.6 µM |  |  | 11.7 µM |  |  |
| COc1ccc(C2(OCCCn3cncc3CC(=O)O)c3ccccc3-c3ccccc32)cc1 |  | 81.3 µM | 50.1% |  |  | 70.1% |  |  | 55.6% |
| COc1ccc(C2(/C=C/Cn3ccnc3CCC(=O)O)c3ccccc3-c3ccccc32)cc1 | 43.7 µM | 35.5 µM | 48.5% | 25.1 µM |  |  |  |  |  |
| COc1ccc(C2(OCCCn3cnc(CC(=O)O)c3)c3ccccc3-c3ccccc32)cc1 |  |  | 84.2% | 97.7 µM |  |  |  | 51.4% | 61.4% |
| COc1ccc(C2(OCCCCn3cnc(CC(=O)O)c3)c3ccccc3-c3ccccc32)cc1 | 49 µM | 39.8 µM | 64.9% | 24 µM |  |  |  |  |  |
| COc1ccc(C2(OCCCn3ccnc3CCC(=O)O)c3ccccc3-c3ccccc32)cc1 |  |  |  |  |  | 31.2% | 100 µM | 48.6% | 55.4% |
| COc1ccc(C2(OC/C=C\Cn3ccnc3CCC(=O)O)c3ccccc3-c3ccccc32)cc1 | 13.2 µM | 15.8 µM |  | 37.2 µM |  |  | 70.8 µM |  |  |
| Cc1ccsc1C(=CCCN1CCC[C@@H](C(=O)O)C1)c1sccc1C |  |  |  |  |  | 52% |  | 64% | 73% |
| COc1ccc(C2(OCCn3ccnc3CCC(=O)O)c3ccccc3-c3ccccc32)cc1 |  |  | 64.8% |  |  | 53% |  | 43.2% | 58.3% |
| COc1ccc(C2(OCCOCCn3ccnc3CCC(=O)O)c3ccccc3-c3ccccc32)cc1 |  | 28.2 µM |  |  |  | 48.3% | 37.2 µM |  | 50.7% |
| COc1ccc(C2(OCCn3cnc(CC(=O)O)c3)c3ccccc3-c3ccccc32)cc1 |  |  | 56.6% |  |  | 44% |  | 46.7% | 85.4% |
| COc1ccc(C2(OCCCCn3ccnc3CCC(=O)O)c3ccccc3-c3ccccc32)cc1 | 174 µM | 87.1 µM |  | 25.1 µM |  |  | 141 µM |  |  |
| COc1ccc(C2(/C=C/COCCn3ccnc3CCC(=O)O)c3ccccc3-c3ccccc32)cc1 | 21.9 µM | 24.5 µM |  | 30.9 µM |  |  | 26.3 µM |  |  |
| COc1ccc(C2(OC/C=C/Cn3ccnc3CCC(=O)O)c3ccccc3-c3ccccc32)cc1 |  |  | 55.8% | 32.4 µM |  |  |  | 43.9% | 61.4% |
| COc1ccc(C2(OCCCCCn3ccnc3/C=C/C(=O)O)c3ccccc3-c3ccccc32)cc1 | 10.2 µM |  |  | 28.8 µM |  |  | 12.6 µM |  |  |
| O=C(O)/C=C/c1ncc[nH]1 |  |  | 73.7% |  |  | 77.3% |  |  | 47.2% |
| COc1ccc(C2(OCCCCn3cncc3CC(=O)O)c3ccccc3-c3ccccc32)cc1 |  |  | 70.8% | 22.9 µM |  |  |  | 41.7% | 59% |
| COc1ccc(C2(OCCCCCn3cncc3CC(=O)O)c3ccccc3-c3ccccc32)cc1 |  |  |  |  |  | 38.5% | 79.4 µM | 68% | 77.4% |
| COc1ccc(C2(OCCn3cncc3CC(=O)O)c3ccccc3-c3ccccc32)cc1 |  |  | 67.2% |  |  | 57.9% |  | 50.8% | 46% |
